# In BindingDB's records for doi:10.1021/jm0607451 (Wyeth Research, 2006):
# Target: Pepsin A-4 (Homo sapiens, UniProt P0DJD7)
# Test: FRET-based Peptide Cleavage Assay
# Conditions: pH 4.5; 22 °C
# Pepsin A-4, sequence (P0DJD7 whole entry): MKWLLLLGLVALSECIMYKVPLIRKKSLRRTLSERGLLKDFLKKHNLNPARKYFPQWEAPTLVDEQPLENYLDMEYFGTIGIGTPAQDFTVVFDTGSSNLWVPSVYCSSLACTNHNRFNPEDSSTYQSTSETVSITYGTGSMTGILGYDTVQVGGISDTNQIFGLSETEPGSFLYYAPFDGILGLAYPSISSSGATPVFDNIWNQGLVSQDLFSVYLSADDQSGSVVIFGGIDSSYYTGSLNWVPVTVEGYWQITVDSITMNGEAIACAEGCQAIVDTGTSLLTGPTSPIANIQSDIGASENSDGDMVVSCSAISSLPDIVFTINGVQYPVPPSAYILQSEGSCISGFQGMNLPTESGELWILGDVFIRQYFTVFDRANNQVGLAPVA
row,IC50 [µM],Structure (SMILES)
1,> 50,CCCOc1ccc(-c2ccc(-c3ccccc3Cl)n2CC(=O)NC(=N)NCCCO)cc1 [N-[(1Z)-amino[(3-hydroxypropyl)amino]methylidene]-2-[2-(2-chlorophenyl)-5-(4-propoxyphenyl)-1H-pyrrol-1-yl]acetamide]
2,> 50,NC(N)=NC(=O)Cn1c(-c2ccccc2)ccc1C12CC3CC(CC(C3)C1)C2 [2-[2-(adamantan-1-yl)-5-phenyl-1H-pyrrol-1-yl]-N-(diaminomethylidene)acetamide]
3,> 50,N/C(=N/C(=O)Cn1c(-c2ccccc2)ccc1C12CC3CC(CC(C3)C1)C2)NCCCO [2-[2-(adamantan-1-yl)-5-phenyl-1H-pyrrol-1-yl]-N-[(1Z)-amino[(3-hydroxypropyl)amino]methylidene]acetamide]
4,> 50,CC(=O)c1ccc(Oc2ccc(-c3ccc(-c4ccccc4Cl)n3CC(=O)NC(=N)N)cc2)cc1 [2-[2-(2-chlorophenyl)-5-[4-(4-acetylphenoxy)phenyl]-1H-pyrrol-1-yl]-N-(diaminomethylidene)acetamide]
